We go through 9 compounds from patent US20250092044A1, “Kinase Inhibitors” (Incyte Corporation, priority 2023, published 2025).

As a reminder, the AUC is the area under the concentration-time curve, a measure of exposure.

Data set [1] is described as follows: In Vivo Pharmacokinetics (cynomolgus monkey). The following applies: both sexes, plasma. Details: species or system Cynomolgus monkeys. The method, then:
Test compounds were administered to male Sprague Dawley rats or male and female Cynomolgus monkeys intravenously or via oral gavage. For intravenous (IV) dosing, test compounds were dosed at 1 mg/kg using a formulation of 10% dimethylacetamide (DMAC), 10% propylene glycol (PG) in acidified saline via IV bolus for rat or 10 min IV infusion for monkey. For oral (PO) dosing, test compounds were dosed at 3.0 mg/kg using 5% DMAC in 0.5% methylcellulose in citrate buffer (PH˜2.5). Blood samples were collected at predose and various time points up to 24 hours postdose. All blood samples were collected using EDTA as the anticoagulant and centrifuged to obtain plasma samples. The plasma concentrations of test compounds were determined by LC-MS/MS methods. The measured plasma concentrations were used to calculate PK parameters by standard noncompartmental methods using Phoenix® WinNonlin software program (version 8.0, Pharsight Corporation) or similar software. In rats and monkeys, cassette dosing of test compounds were conducted to obtain preliminary PK parameters. In vivo pharmacokinetic experiments with male beagle dogs may be performed under the conditions described above.

The target in a further data set is CYP3A4 (Homo sapiens (Human), UniProt P08684). Description: Time Dependent Inhibition (TDI) of CYP. It is filed as in vitro ADME. Particulars: for TDI 3A4: Kobs, 30 min pre-incubation with NADPH; for TDI 3A4 / Kobs: human liver microsomes, 10 μM; for CYP function remaining / Kobs: time dependent inhibition of CYPs; for CYP function remaining: after pre-incubation with NADPH. An excerpt:
Inhibition of P450 enzymes can be classified as either reversible or time-dependent inhibition (TDI). This in vitro assay is designed to detect an increase in CYP inhibition as a result of biotransformation and/or bioactivation (TDI). Potential mechanisms for this include the formation of a tight-binding, quasi-irreversible inhibitory metabolite complex or the inactivation of P450 enzymes by covalent adduct formation of metabolites. While this experiment employs a 10-fold dilution to diminish metabolite concentrations and therefore effects of reversible inhibition, it is possible (but not common) that a metabolite that is an extremely potent CYP inhibitor could result in a positive result.
The results are from a cocktail of CYP specific probe substrates at 4 times their Km concentrations for CYP2C9 (diclofenac), CYP2C19 (S-mephenytoin), CYP2D6 (bufuralol) and CYP3A4 (midazolam) using human liver microsomes (HLM). The HLMs were pre-incubated with test compound(s) at a concentration 10 μM for 30 min in the presence (+N) or absence (−N) of a NADPH regenerating system, diluted 10-fold, and incubated for 8 min in the presence of the substrate cocktail with the addition of a fresh aliquot of NADPH regenerating system. A calibration curve of metabolite standards was used to quantitatively measure the enzyme activity using LC-MS/MS. In addition, incubations with known time dependent inhibitors, tienilic aicd (CYP2C9), ticlopidine (CYP2C19), paroxetine (CYP2D6), and troleandomycin (CYP3A4), used as positive controls were pre-incubated 30 min with or without a NADPH regenerating system.
The percentage of control CYP2C9, CYP2C19, CYP2D6, and CYP3A4 activity remaining following pre-incubation of the compounds with NADPH is corrected for the corresponding control vehicle activity and then calculated based on 0 minutes as 100%. A linear regression plot of the natural log of % activity remaining versus time for each isozyme is used to calculate the slope. The −slope is equal to the rate of enzyme loss, or the Kobs. […] Examples 29-30 have Kobs from 0.005-0.02 indicating a medium to low potential for time dependent inhibition of CYPs corresponding to 70-90% CYP function remaining.
In general terms: Liver microsomes are a subcellular fraction often used to study metabolism.

Data set [2] in a line: In Vivo Pharmacokinetics (mouse). The following applies: plasma, PO.
The mark [3] stands for this setting: PO 3.0 mg/kg, read-out: CYNO PO AUC.

Chain of CYP3A4 (P08684 whole entry): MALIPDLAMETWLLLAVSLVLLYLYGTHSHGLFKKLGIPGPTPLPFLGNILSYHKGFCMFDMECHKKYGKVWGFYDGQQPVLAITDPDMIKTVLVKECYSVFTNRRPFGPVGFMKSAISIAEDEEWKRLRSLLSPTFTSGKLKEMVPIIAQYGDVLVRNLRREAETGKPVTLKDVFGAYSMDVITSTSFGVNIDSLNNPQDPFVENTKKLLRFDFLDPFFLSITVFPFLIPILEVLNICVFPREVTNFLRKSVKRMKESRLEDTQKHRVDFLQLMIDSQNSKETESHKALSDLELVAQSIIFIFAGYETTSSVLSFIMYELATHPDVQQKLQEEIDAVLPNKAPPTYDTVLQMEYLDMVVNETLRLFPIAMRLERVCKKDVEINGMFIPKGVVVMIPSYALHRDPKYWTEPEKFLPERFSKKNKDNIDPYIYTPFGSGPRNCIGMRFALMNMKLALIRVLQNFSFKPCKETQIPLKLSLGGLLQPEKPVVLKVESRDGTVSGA

In the case of `COc1nn(C)cc1-c1[nH]c2ncc3c(c2c1-c1ccc2c(cnn2C)c1)n(C1CCOCC1)c(=O)n3C` [Comparative Example A, reference compound], the AUC in data set [1] (setting [3]) is at most 0.5 µM·h. On CYP3A4, the “TDI 3A4” value is “⋄⋄⋄⋄ (≥0.04)”, the CYP function remaining entry is given as “about 30%” and the Kobs result was “around 0.04”. Further, in data set [2], the AUC is over 1.5 µM·h.

Consider `[2H]C([2H])([2H])n1ncc2cc(-c3c(-c4cn(C)nc4OC)[nH]c4ncc5c(c34)n(C3CCOCC3)c(=O)n5C)ccc21` [Comparative Example B, reference compound], for which the AUC in data set [1] (setting [3]) is at most 0.5 µM·h. Besides, on CYP3A4, the “TDI 3A4” value is “⋄⋄⋄⋄ (≥0.04)”, the CYP function remaining result is reported as “about 30%” and the Kobs result was “around 0.04”.

On to `COc1nn(C)cc1-c1[nH]c2ncc3c(c2c1-c1ccc2c(cnn2C)c1)n([C@H]1CC[C@@H](CC#N)CC1)c(=O)n3C` [E, reference compound], for which the AUC in data set [2] was over 1.5 µM·h.

In data set [1] (PO, 1 mg/kg), `[2H]C([2H])([2H])N(Cc1ccc(-c2[nH]c3ncc4c(c3c2-c2ccc3c(c2)CC(C)(C)O3)n([C@@H]2CC[C@@H](NC(=O)OC)C2)c(=O)n4C([2H])([2H])[2H])cc1)C([2H])([2H])[2H]` [Example 25, Methyl ((1R,3R)-3-(7-(4-((bis(methyl-d3)amino)methyl)phenyl)-8-(2,2-dimethyl-2,3-dihydrobenzofuran-5-yl)-3-(methyl-d3)-2-oxo-3,6-dihydroimidazo[4,5-d]pyrrolo[2,3-b]pyridin-1(2H)-yl)cyclopentyl)carbamate] came in with an AUC of at most 0.5 µM·h. For the same compound, the “TDI 3A4” value on CYP3A4 was “⋄ (≤0.005)”.

`[2H]C([2H])([2H])n1c(=O)n([C@@H]2CC[C@@H](NC(=O)OC)C2)c2c3c(-c4ccc5c(cnn5C(C)C)c4)c(-c4ccc(CN(C)C)cc4)[nH]c3ncc21` [Example 26, Methyl ((1R,3R)-3-(7-(4-((dimethylamino)methyl)phenyl)-8-(1-isopropyl-1H-indazol-5-yl)-3-(methyl-d3)-2-oxo-3,6-dihydroimidazo[4,5-d]pyrrolo[2,3-b]pyridin-1(2H)-yl)cyclopentyl)carbamate]: the AUC in data set [1] (setting [3]) fell in the range of 0.5 to 1.5 µM·h. The “TDI 3A4” value on CYP3A4 was “⋄ (≤0.005)”.

With `[2H]C([2H])([2H])N(Cc1ccc(-c2[nH]c3ncc4c(c3c2-c2ccc(OCCOC)cc2)n([C@@H]2CC[C@@H](NC(=O)OC)C2)c(=O)n4C([2H])([2H])[2H])cc1)C([2H])([2H])[2H]` [Example 27, Methyl ((1R,3R)-3-(7-(4-((bis(methyl-d3)amino)methyl)phenyl)-8-(4-(2-methoxyethoxy)phenyl)-3-(methyl-d3)-2-oxo-3,6-dihydroimidazo[4,5-d]pyrrolo[2,3-b]pyridin-1(2H)-yl)cyclopentyl)carbamate], the AUC in data set [1] (setting [3]) is over 1.5 µM·h. Moreover, the “TDI 3A4” value on CYP3A4 is “⋄ (≤0.005)”.

Consider `COC(=O)N[C@@H]1CC[C@@H](n2c(=O)n(C)c3cnc4[nH]c(-c5ccc(CN(C)C)cc5)c(-c5ccc(F)cc5)c4c32)C1` [Example 28, Methyl ((1R,3R)-3-(7-(4-((dimethylamino)methyl)phenyl)-8-(4-fluorophenyl)-3-methyl-2-oxo-3,6-dihydroimidazo[4,5-d]pyrrolo[2,3-b]pyridin-1(2H)-yl)cyclopentyl)carbamate], for which, at CYP3A4, the “TDI 3A4” value is given as “⋄ (≤0.005)”.

Turning to `[2H]C([2H])([2H])N(Cc1ccc(-c2[nH]c3ncc4c(c3c2-c2ccc3c(c2)COC3(C)C)n([C@@H]2CC[C@@H](NC(=O)OC)C2)c(=O)n4C([2H])([2H])[2H])cc1)C([2H])([2H])[2H]` [Example 29, Methyl ((1R,3R)-3-(7-(4-((bis(methyl-d3)amino)methyl)phenyl)-8-(1,1-dimethyl-1,3-dihydroisobenzofuran-5-yl)-3-(methyl-d3)-2-oxo-3,6-dihydroimidazo[4,5-d]pyrrolo[2,3-b]pyridin-1(2H)-yl)cyclopentyl)carbamate], the “TDI 3A4” value on CYP3A4 is reported as “⋄⋄ (>0.005 to ≤0.02)”.

Regarding `[2H]C([2H])([2H])n1c(=O)n([C@@H]2CC[C@@H](NC(=O)OC)C2)c2c3c(-c4ccc5c(c4)COC5(C)C)c(-c4ccc(C(=O)N(C)C)cc4)[nH]c3ncc21` [Example 30, methyl ((1R,3R)-3-(8-(1,1-dimethyl-1,3-dihydroisobenzofuran-5-yl)-7-(4-(dimethylcarbamoyl)phenyl)-3-(methyl-d3)-2-oxo-3,6-dihydroimidazo[4,5-d]pyrrolo[2,3-b]pyridin-1(2H)-yl)cyclopentyl)carbamate], the “TDI 3A4” value at CYP3A4 is recorded as “⋄⋄ (>0.005 to ≤0.02)”.
